Series [1] concerns the target T1, human DDC (Homo sapiens, UniProt P20711).
T1 construct: made in house
T1 sequence (P20711 1-480): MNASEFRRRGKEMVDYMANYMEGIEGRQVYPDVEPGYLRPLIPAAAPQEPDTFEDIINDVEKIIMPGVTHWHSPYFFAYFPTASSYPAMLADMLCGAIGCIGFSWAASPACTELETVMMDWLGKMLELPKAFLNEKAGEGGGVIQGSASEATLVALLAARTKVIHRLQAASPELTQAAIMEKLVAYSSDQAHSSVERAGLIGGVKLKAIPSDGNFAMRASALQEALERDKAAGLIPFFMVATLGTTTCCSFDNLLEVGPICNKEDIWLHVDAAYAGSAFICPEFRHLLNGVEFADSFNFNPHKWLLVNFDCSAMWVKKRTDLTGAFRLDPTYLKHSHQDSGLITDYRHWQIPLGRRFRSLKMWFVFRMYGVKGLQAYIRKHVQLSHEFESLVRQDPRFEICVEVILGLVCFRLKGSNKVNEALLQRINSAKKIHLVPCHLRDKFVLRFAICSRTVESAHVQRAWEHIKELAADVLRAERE
Put plainly: Enzyme-ligand equilibrium dissociation constant from visible CD signal changes of DDC. In kind it is binding. Particulars: change of 420 nm or 335 nm CD band, 100 mM potassium phosphate pH 7.4. The protocol:
The equilibrium dissociation constant for each tested compound from DDC was determined by monitoring the decrease in the 420 nm CD signal of DDC (7 µM) in the presence of various ligand concentrations in 100 mM potassium phosphate buffer, pH 7.4. In any case, the maximun DMSO concentration in the mixture was kept lower than 1% (v/v). The KD values were obtained from the fitting of the data to the equation [drawing 3] where [E]t and [L]t represent the total concentrations of DDC dimer and ligand, respectively, Y refers to the visible CD signal change at 420 nm at the ligand concentration [L], and Ymax refers to the CD signal when all enzyme molecules are complexed with the ligand. CD measurements were performed with a Jasco J-710 spectropolarimeter using quartz cuvettes with 1 cm path length.

Series [2] concerns the target T1, human DDC. Put plainly: Assay of the inhibitory activity: spectrophotometric measurement of dopamine production by DDC. In kind it is biochemical. Particulars: for IC50: 0.1 mM L-Dopa, pH 7.4, 25°C, 9 concentrations in duplicate, read-out: IC50; for BE (binding efficiency): binding energy per unit of mass, from Ki and molecular weight in kDa; for Inhibition profile: type of inhibition from Lineweaver–Burk plots. The protocol:
DDC activity was determined by measuring the production of dopamine with a spectrophotometric assay outlined by Sherald et al. and modified by Charteris and John. The reaction was carried out in 0.1 M potassium phosphate buffer pH 7.4 at 25°C for 1 min and stopped by inactivation of the enzyme at 100°C for 90 sec. The inhibitory assay was performed by measuring the decarboxylase activity of DDC with 50 nM enzyme, 0.1 mM L-Dopa, and 10 µM PLP in the presence and in the absence of a fixed amount of each compound. Various amounts of dimethyl sulphoxyde (DMSO) were necessary to solubilize the compounds in 100 mM potassium phosphate buffer, pH 7.4. […] Compounds were evaluated at 9 concentrations, and each in duplicate. IC50 values were derived by nolinear regression analysis. The related inhibition type of the compounds on human DDC was identified from Lineweaver–Burk plots, and Ki and/or Ki′ values for the inhibitors tested were calculated by the software Origin 7.0.

Details of series [3]: method as in PMID 580398. The conditions noted are these: animals and humans; cited from earlier work.
Series [4] relates to pig kidney DDC. The conditions noted are these: cited from earlier work.
Setting [5] is: 50 nM enzyme, L-Dopa, 10 µM PLP, 0.1 M potassium phosphate pH 7.4, 25°C, from Lineweaver–Burk plots, read-out: Ki.
Setting [6] is: Ki, competitive inhibition, Table 4, third screening.

Usually Kd stands for the concentration at which binding is half-saturated. High values mean a looser complex, low ones a tighter complex. For orientation: IC50 means the concentration needed to halve the response being measured. For orientation: Ki means a measure of affinity in units of concentration, obtained from inhibition or displacement.

Like-named read-outs stand apart in the source and are kept apart here.

In the case of `Oc1cccc(/C=N/n2c(S)nnc2-c2ccccc2Cl)c1` [Compound 28], in series [1], the Kd stood at 21.1 ± 3.5 µM. In addition, in series [2] (50 nM enzyme, 10 µM PLP), the IC50 worked out at 17 ± 1 µM. Further, in series [2] (setting [5]), the Ki was 14 ± 1 µM. In series [2], the “BE (binding efficiency)” value was found to be 14.7 and the Inhibition profile entry is given as “competitive inhibitors”.

For the compound `Oc1ccc(/C=N/n2c(S)nnc2-c2ccc(Cl)cc2Cl)cc1O` [Compound 30], in series [1], the affinity, expressed as Kd, was 25.1 ± 3.5 µM. Further, in series [2] (50 nM enzyme, 10 µM PLP), the half-maximal inhibitory concentration (IC50) came out at 29.8 ± 4.8 µM. The Ki in series [2] (setting [5]) is 12.2 ± 0.4 µM. In series [2], the “BE (binding efficiency)” value came to 12.9 and the Inhibition profile entry is given as “competitive inhibitors”.

Regarding `Oc1ccccc1/C=N/n1c(S)nnc1-c1ccccc1` [Compound 31], binding in series [1] was characterised by a dissociation constant (Kd) of 31.7 ± 3.4 µM. Besides, the IC50 in series [2] (50 nM enzyme, 10 µM PLP) amounted to 83 ± 12 µM. Moreover, in series [2] (setting [5]), the Ki amounted to 33.4 ± 5 µM. Moreover, in series [2], the “BE (binding efficiency)” value was found to be 15.1 and the Inhibition profile entry is “competitive inhibitors”.

`Oc1ccc(/C=N/n2c(S)nnc2-c2ccc(F)cc2)cc1O` [Compound 34]: in series [1], the affinity, expressed as Kd, was 7.1 ± 0.9 µM. The IC50 in series [2] (50 nM enzyme, 10 µM PLP) was 11 ± 0.8 µM. For the same compound, in series [2] (setting [5]), the Ki came to 10.4 ± 3.3 µM. Also, in series [2], the “BE (binding efficiency)” value is listed as 15.8 and the Inhibition profile entry is reported as “competitive inhibitors”.

In series [1], `Oc1ccc(/C=N/n2c(S)nnc2-c2ccccc2)cc1O` [Compound 37] returned a Kd of 1.5 ± 0.2 µM. Also, in series [2] (50 nM enzyme, 10 µM PLP), the IC50 turned out to be 2.4 ± 0.3 µM. The Ki in series [2] (setting [5]) turned out to be 1.8 ± 1.1 µM. For the same compound, in series [2], the “BE (binding efficiency)” value was 18.4 and the Inhibition profile entry is “competitive inhibitors”.

Consider `Oc1ccc(/C=N/n2cnnc2)cc1O` [Compound 38], for which the Kd in series [1] was 24.5 ± 4.4 µM. Also, the IC50 in series [2] (50 nM enzyme, 10 µM PLP) came to 76 ± 5.8 µM. For the same compound, affinity in series [2] (setting [6]) was put at a Ki of 24.5 ± 1.4 µM. For the same compound, the “BE (binding efficiency)” value in series [2] is 22,6.

In series [1], `Cc1nnc(S)n1/N=C/c1ccc(O)c(O)c1` [Compound 39] yielded a Kd of 9.1 ± 0.3 µM. Moreover, the concentration for half-maximal inhibition (IC50) in series [2] (50 nM enzyme, 10 µM PLP) was determined as 27.5 ± 3.3 µM. Also, in series [2], the “BE (binding efficiency)” value is recorded as 19,9. In addition, in series [2] (competitive inhibition, Table 4, third screening, read-out: Ki), the inhibition constant (Ki) was determined as 10.8 ± 0.8 µM.

In turn, `Cc1ccccc1-c1nnc(S)n1/N=C/c1ccc(O)c(O)c1` [Compound 41] registered a dissociation constant Kd in series [1] of 6.1 ± 0.5 µM. The IC50 in series [2] (50 nM enzyme, 10 µM PLP) was 30.1 ± 2.1 µM. This compound also came in with a Ki in series [2] (setting [6]) of 9.8 ± 0.5 µM. For the same compound, the “BE (binding efficiency)” value in series [2] was 15,4.

The compound `Cc1ccc(-c2nnc(S)n2/N=C/c2ccc(O)c(O)c2)cc1` [Compound 42] registered a dissociation constant Kd in series [1] of 2.7 ± 0.5 µM. Further, the concentration for half-maximal inhibition (IC50) in series [2] (50 nM enzyme, 10 µM PLP) was found to be 5.2 ± 0.4 µM. In addition, in series [2] (setting [6]), the inhibitory constant (Ki) stood at 2 ± 0.2 µM. The “BE (binding efficiency)” value in series [2] is reported as 17,5.

`Cc1cccc(-c2nnc(S)n2/N=C/c2ccc(O)c(O)c2)c1` [Compound 43]: in series [1], binding was put at a Kd of 2.8 ± 0.5 µM. Besides, in series [2] (50 nM enzyme, 10 µM PLP), the IC50 came out at 3.8 ± 0.6 µM. For the same compound, the inhibition constant Ki in series [2] (setting [6]) was 1.9 ± 0.1 µM. The “BE (binding efficiency)” value in series [2] is listed as 17,5.

In the case of `COc1cccc(-c2nnc(S)n2/N=C/c2ccc(O)c(O)c2)c1` [Compound 45], the dissociation constant (Kd) in series [1] was 1.5 ± 0.3 µM. For the same compound, the concentration for half-maximal inhibition (IC50) in series [2] (50 nM enzyme, 10 µM PLP) was determined as 6.2 ± 0.3 µM. This compound yielded a Ki in series [2] (setting [6]) of 2 ± 0.1 µM. Further, in series [2], the “BE (binding efficiency)” value was 16,7.

For `NC(CO)C(=O)NNCc1ccc(O)c(O)c1O` (centres unmarked) [benserazide, trihydroxybenzylhydrazine seryl derivative], in series [3], the “Metabolism before reaching the arterial blood” value was “completely metabolized before it reaches the arterial blood”. Also, in series [4], the “DDC inhibition in words” value was “not a powerful DDC inhibitor”.

Regarding `C[C@@](Cc1ccc(O)c(O)c1)(NN)C(=O)O` [carbidopa, L-α-methyl-α-hydrazino-3,4-dihydroxyphenylpropionic acid], the “DDC inhibition in words” value in series [4] was “powerful irreversible DDC inhibitors”.

For `NNCc1ccc(O)c(O)c1O` [trihydroxybenzylhydrazine], in series [4], the “DDC inhibition in words” value is “powerful irreversible DDC inhibitors”.
